Test results taken from patent US8858988B2, “Compositions comprising extracts of Boswellia, tea tree, aloe and lavender oil and methods of treating wounds, burns and skin injuries therewith” (CuraPhyte Technologies Inc., priority 2009, dated 2014).
Marks after values point to notes of the source that are not given here.

System: mouse cutaneous injury model
Assay: Wound healing in mouse cutaneous injury model
Assay type: in vivo
Settings: TOP
Method: Animal model: Groups of 8 ICR male mice weighing 22±2 g were used. Under ether anesthesia, the shoulder and back region of each animal was shaved. A sharp punch (ID 12 mm) was used to remove the skin including panniculus carnosus and adherent tissues. The wound area, traced onto clear plastic sheets on days 3, 5, 7, 9 and 11, were quantitated by use of an Image Analyzer (Life Science Resources VISTA, Version 30). Test compound and vehicle (20 μl, 1.5% carboxymethylcellulose in PBS) were applied topically immediately following injury and in single, two or three applications daily thereafter for a total of 10 consecutive days. The wound half-closure time (CT50) was determined and unpaired Student's t test was applied for comparison between treated and vehicle group at each measurement time point. Differences are considered statistical significance at P<0.05. CGS-21680 ((2-p-carboxyethyl)phenylamino-5′-N-carboxamidoadenosine) was used as a positive comparator. Test substance C-T-1001 (Ointment A: herbal active ingredients tea tree oil, boswellia resin, aloe vera gel and lavender oil) was evaluated for possible wound healing activity. The test substance was applied topically to the wound area once, twice, or three times daily for 10 consecutive days. Percent closure of the wound (%) was determined on days 3, 5, 7, 9 and 11 in order to generate the half closure time (CT50). One-way ANOVA followed by Dunnett's test was used to determine significant difference between the treated groups and vehicle control.

CCNC(=O)[C@H]1O[C@@H](n2cnc3c(N)nc(NCCc4ccc(CCC(=O)O)cc4)nc32)[C@H](O)[C@@H]1O [CGS-21680]
The Closure of Wound (%) Day 3 (10 μg/mouse × 10, Day 3, mean (X)): 42.4* % | The Closure of Wound (%) Day 5 (10 μg/mouse × 10, Day 5, mean (X)): 56.3* % | The Closure of Wound (%) Day 7 (10 μg/mouse × 10, Day 7, mean (X)): 66.8* % | The Closure of Wound (%) Day 9 (10 μg/mouse × 10, Day 9, mean (X)): 74.3* % | The Closure of Wound (%) Day 11 (10 μg/mouse × 10, Day 11, mean (X)): 81.7* % | CT50 (Days), wound half-closure time (10 μg/mouse × 10, mean (X)): 5.5* Days
